# Article PMC11980595, “Pyruvate kinase directly generates GTP in glycolysis, supporting growth and contributing to guanosine toxicity” (mBio, 2025)
# Assays:
# Format in all cases: biochemical
# E. faecalis PK = biological target: T1, E. faecalis PK (Enterococcus faecalis, UniProt Q836R2); test: pyruvate kinase activity assay, catalytic efficiency; details: co-substrate PEP; only kcat/Km, in figure
# T1 construct: gene pyk; construct and purification not described
# T1 sequence (Q836R2 1-585): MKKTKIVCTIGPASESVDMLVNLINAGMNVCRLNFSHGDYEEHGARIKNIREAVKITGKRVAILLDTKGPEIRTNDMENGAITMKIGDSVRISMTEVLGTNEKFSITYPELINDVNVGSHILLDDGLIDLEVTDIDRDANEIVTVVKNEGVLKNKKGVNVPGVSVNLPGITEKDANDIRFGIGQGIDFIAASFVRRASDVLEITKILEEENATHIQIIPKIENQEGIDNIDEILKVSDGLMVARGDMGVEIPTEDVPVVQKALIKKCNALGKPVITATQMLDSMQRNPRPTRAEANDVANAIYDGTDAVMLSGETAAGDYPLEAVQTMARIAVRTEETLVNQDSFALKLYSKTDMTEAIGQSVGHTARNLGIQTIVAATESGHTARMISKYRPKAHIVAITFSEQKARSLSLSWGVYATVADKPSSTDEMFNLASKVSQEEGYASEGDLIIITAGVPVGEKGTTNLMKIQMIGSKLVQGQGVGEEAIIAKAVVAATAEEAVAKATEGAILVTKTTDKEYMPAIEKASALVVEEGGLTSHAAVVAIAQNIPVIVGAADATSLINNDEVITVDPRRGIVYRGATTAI
# L. monocytogenes PK = biological target: T2, L. monocytogenes PK (Listeria monocytogenes, UniProt Q8Y6W1); test: as above; details: co-substrate PEP; only kcat/Km, in figure
# T2 construct: gene pykA; construct and purification not described
# T2 sequence (Q8Y6W1 1-585): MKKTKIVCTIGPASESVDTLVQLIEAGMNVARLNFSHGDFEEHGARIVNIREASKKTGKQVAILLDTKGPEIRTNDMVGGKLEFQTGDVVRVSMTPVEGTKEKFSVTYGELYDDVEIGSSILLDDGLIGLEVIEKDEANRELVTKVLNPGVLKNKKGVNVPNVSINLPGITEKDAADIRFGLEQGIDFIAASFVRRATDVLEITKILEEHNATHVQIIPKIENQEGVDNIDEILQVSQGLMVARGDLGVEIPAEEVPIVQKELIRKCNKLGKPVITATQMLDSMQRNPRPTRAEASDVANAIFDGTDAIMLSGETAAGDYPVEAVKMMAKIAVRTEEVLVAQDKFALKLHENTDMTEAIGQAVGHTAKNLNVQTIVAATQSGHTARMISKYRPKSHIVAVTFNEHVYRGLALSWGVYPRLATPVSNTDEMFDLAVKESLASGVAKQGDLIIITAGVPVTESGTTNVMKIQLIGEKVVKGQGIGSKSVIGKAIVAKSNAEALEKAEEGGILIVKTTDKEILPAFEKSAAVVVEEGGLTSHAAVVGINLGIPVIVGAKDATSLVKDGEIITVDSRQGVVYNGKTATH
# [1] = biological target: T3, B. subtilis pyruvate kinase (PK) (Bacillus subtilis, UniProt P80885); test: activation of initial velocity, lactate dehydrogenase-coupled assay; details: activator at 1 mM; NDP varied, co-substrate PEP
# T3 construct: gene pyk
# T3 sequence (P80885 1-585): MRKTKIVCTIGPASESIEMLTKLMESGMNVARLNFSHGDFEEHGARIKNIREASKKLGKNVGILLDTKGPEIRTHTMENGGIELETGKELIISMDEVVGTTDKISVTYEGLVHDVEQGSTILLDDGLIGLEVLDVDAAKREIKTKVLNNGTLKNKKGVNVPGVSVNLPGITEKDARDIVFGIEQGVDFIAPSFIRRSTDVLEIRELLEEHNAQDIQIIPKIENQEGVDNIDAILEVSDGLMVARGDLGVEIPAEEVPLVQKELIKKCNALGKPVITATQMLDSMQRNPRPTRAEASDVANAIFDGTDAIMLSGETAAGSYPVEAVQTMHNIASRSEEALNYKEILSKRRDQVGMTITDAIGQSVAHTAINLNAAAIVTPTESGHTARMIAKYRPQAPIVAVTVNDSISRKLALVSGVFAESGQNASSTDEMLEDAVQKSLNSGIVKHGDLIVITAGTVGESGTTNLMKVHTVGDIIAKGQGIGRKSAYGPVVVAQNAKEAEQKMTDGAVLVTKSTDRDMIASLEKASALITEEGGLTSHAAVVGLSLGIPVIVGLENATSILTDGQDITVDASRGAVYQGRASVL
Structure (SMILES),"pyruvate kinase activity assay, catalytic efficiency (E. faecalis PK)","pyruvate kinase activity assay, catalytic efficiency (L. monocytogenes PK)","activation of initial velocity, lactate dehydrogenase-coupled assay [1]"
Nc1ncnc2c1ncn2[C@@H]1O[C@H](COP(=O)(O)OP(=O)(O)O)[C@@H](O)[C@H]1O [ADP],E. faecalis PK is also able to use ADP with high efficiency,L. monocytogenes PK can use ADP and UDP but less efficiently than GDP,
Nc1ncnc2c1ncn2[C@@H]1O[C@H](COP(=O)(O)O)[C@@H](O)[C@H]1O [AMP],,,"when AMP, a known activator of pyruvate kinase, was added, we observed a marked increase"
Nc1nc2c(ncn2[C@@H]2O[C@H](COP(=O)(O)OP(=O)(O)O)[C@@H](O)[C@H]2O)c(=O)[nH]1 [GDP],Enterococcus faecalis and Listeria monocytogenes also showed highest catalytic efficiencies on GDP,Enterococcus faecalis and Listeria monocytogenes also showed highest catalytic efficiencies on GDP,
